Test results published in PubChem BioAssay AID1745844 (Carcinogenic Potency Database (CPDB), 2022).
Values joined by “and” are separate entries in the source; they are usually repeats but may differ in a detail not shown here. Equal entries are not always repeated.

Tested on: rodent lifetime carcinogenesis bioassay, tumor incidence TD50
Experiment: chronic cancer bioassays in animals – CPDB, compiled studies (AID 1745844)
Details: rat, inhaled

SMILES: C=CCl
- TD50 (strain Sprague-Dawley, males, site: extrahepatic tissue, lesion: angiosarcoma, dosed 25 weeks, study length 115 weeks): 468 mg/kg/day
- TD50 (strain Sprague-Dawley, males, site: extrahepatic tissue, lesion: angiosarcoma, dosed 52 weeks, study length 123 weeks): 63 mg/kg/day
- TD50 (strain Sprague-Dawley, males, site: extrahepatic tissue, lesion: angiosarcoma, dosed 52 weeks, study length 131 weeks): 14900 mg/kg/day
- TD50 (strain Sprague-Dawley, males, site: extrahepatic tissue, lesion: angiosarcoma, dosed 52 weeks, study length 139 weeks): 11.7 mg/kg/day
- TD50 (strain Sprague-Dawley, males, site: kidney, lesion: nephroblastoma, dosed 25 weeks, study length 139 weeks): 1940 mg/kg/day
- TD50 (strain Sprague-Dawley, males, site: kidney, lesion: nephroblastoma, dosed 52 weeks, study length 123 weeks): 37.8 mg/kg/day
- TD50 (strain Sprague-Dawley, males, site: kidney, lesion: nephroblastoma, dosed 52 weeks, study length 131 weeks): 2960 mg/kg/day
- TD50 (strain Sprague-Dawley, males, site: kidney, lesion: nephroblastoma, dosed 52 weeks, study length 139 weeks): 28.9 mg/kg/day
- TD50 (strain Sprague-Dawley, males, site: liver, lesion: angioma, dosed 25 weeks, study length 115 weeks): 580 mg/kg/day
- TD50 (strain Sprague-Dawley, males, site: liver, lesion: angioma, dosed 25 weeks, study length 139 weeks): 1030 mg/kg/day
- TD50 (strain Sprague-Dawley, males, site: liver, lesion: angioma, dosed 52 weeks, study length 123 weeks): 106 mg/kg/day and 54.3 mg/kg/day
- TD50 (strain Sprague-Dawley, males, site: liver, lesion: angiosarcoma, dosed 25 weeks, study length 115 weeks): 871 mg/kg/day
- TD50 (strain Sprague-Dawley, males, site: liver, lesion: angiosarcoma, dosed 52 weeks, study length 123 weeks): 76.7 mg/kg/day and 62.4 mg/kg/day
- TD50 (strain Sprague-Dawley, males, site: liver, lesion: angiosarcoma, dosed 52 weeks, study length 130 weeks): 90 mg/kg/day
- TD50 (strain Sprague-Dawley, males, site: liver, lesion: angiosarcoma, dosed 52 weeks, study length 131 weeks): 875 mg/kg/day
- TD50 (strain Sprague-Dawley, males, site: liver, lesion: angiosarcoma, dosed 52 weeks, study length 139 weeks): 75.8 mg/kg/day
- TD50 (strain Sprague-Dawley, males, site: liver, lesion: hepatocellular carcinoma, dosed 52 weeks, study length 130 weeks): 40.8 mg/kg/day
- TD50 (strain Sprague-Dawley, males, site: liver, lesion: hepatoma, dosed 52 weeks, study length 123 weeks): 152 mg/kg/day
- TD50 (strain Sprague-Dawley, males, site: liver, lesion: hepatoma, dosed 52 weeks, study length 131 weeks): 13400 mg/kg/day
- TD50 (strain Sprague-Dawley, males, site: liver, lesion: several types, types named in the paper, dosed 52 weeks, study length 130 weeks): 294 mg/kg/day
- TD50 (strain Sprague-Dawley, males, site: pituitary gland, lesion: one or several types, types not named, dosed 52 weeks, study length 130 weeks): 138 mg/kg/day
- TD50 (strain Wistar, females, site: Zymbal's gland, lesion: squamous-cell carcinoma, dosed 52 weeks, study length 52 weeks): 857 mg/kg/day
- TD50 (strain Wistar, females, site: liver, lesion: angiosarcoma, dosed 52 weeks, study length 52 weeks): 209 mg/kg/day
- TD50 (strain Wistar, females, site: liver, lesion: hepatocellular carcinoma, dosed 52 weeks, study length 52 weeks): 1810 mg/kg/day
- TD50 (strain Wistar, females, site: liver, lesion: neoplastic nodule, dosed 52 weeks, study length 52 weeks): 1810 mg/kg/day
- TD50 (strain Wistar, females, site: lung, lesion: papillary adenoma, dosed 52 weeks, study length 52 weeks): 1810 mg/kg/day
- TD50 (strain Wistar, females, site: nasal cavity, lesion: olfactory epithelial carcinoma, dosed 52 weeks, study length 52 weeks): 276 mg/kg/day
- TD50 (strain Wistar, males, site: Zymbal's gland, lesion: carcinoma, dosed 52 weeks, study length 125 weeks): 3540 mg/kg/day
- TD50 (strain Wistar, males, site: Zymbal's gland, lesion: squamous-cell carcinoma, dosed 52 weeks, study length 52 weeks): 330 mg/kg/day
- TD50 (strain Wistar, males, site: any site (literature study), lesion: several types, types named in the paper, dosed 52 weeks, study length 78 weeks): 5.44 mg/kg/day
- TD50 (strain Wistar, males, site: any site (literature study), lesion: several types, types named in the paper, dosed 52 weeks, study length 125 weeks): 1130 mg/kg/day
- TD50 (strain Wistar, males, site: brain, lesion: neuroblastoma, dosed 52 weeks, study length 125 weeks): 4140 mg/kg/day
- TD50 (strain Wistar, males, site: brain, lesion: one or several types, types not named, dosed 52 weeks, study length 78 weeks): 5820 mg/kg/day
- TD50 (strain Wistar, males, site: extrahepatic tissue, lesion: angioma, dosed 52 weeks, study length 125 weeks): 72700 mg/kg/day
- TD50 (strain Wistar, males, site: extrahepatic tissue, lesion: angioma, dosed 52 weeks, study length 127 weeks): 0.37 mg/kg/day
- TD50 (strain Wistar, males, site: extrahepatic tissue, lesion: angiosarcoma, dosed 52 weeks, study length 125 weeks): 8490 mg/kg/day
- TD50 (strain Wistar, males, site: extrahepatic tissue, lesion: angiosarcoma, dosed 52 weeks, study length 127 weeks): 1.05 mg/kg/day
- TD50 (strain Wistar, males, site: kidney, lesion: nephroblastoma, dosed 52 weeks, study length 125 weeks): 4510 mg/kg/day
- TD50 (strain Wistar, males, site: liver, lesion: angioma, dosed 52 weeks, study length 125 weeks): 3620 mg/kg/day
- TD50 (strain Wistar, males, site: liver, lesion: angioma, dosed 52 weeks, study length 127 weeks): 0.654 mg/kg/day
- TD50 (strain Wistar, males, site: liver, lesion: angiosarcoma, dosed 52 weeks, study length 52 weeks): 330 mg/kg/day
- TD50 (strain Wistar, males, site: liver, lesion: angiosarcoma, dosed 52 weeks, study length 78 weeks): 10.2 mg/kg/day
- TD50 (strain Wistar, males, site: liver, lesion: angiosarcoma, dosed 52 weeks, study length 125 weeks): 518 mg/kg/day
- TD50 (strain Wistar, males, site: liver, lesion: hepatocellular carcinoma, dosed 52 weeks, study length 52 weeks): 1140 mg/kg/day
- TD50 (strain Wistar, males, site: liver, lesion: hepatoma, dosed 52 weeks, study length 125 weeks): 4860 mg/kg/day
- TD50 (strain Wistar, males, site: liver, lesion: hepatoma, dosed 52 weeks, study length 127 weeks): 0.728 mg/kg/day
- TD50 (strain Wistar, males, site: lung, lesion: angiosarcoma, dosed 52 weeks, study length 78 weeks): 193 mg/kg/day
- TD50 (strain Wistar, males, site: lung, lesion: one or several types, types not named, dosed 52 weeks, study length 78 weeks): 867 mg/kg/day
- TD50 (strain Wistar, males, site: nasal cavity, lesion: olfactory epithelial carcinoma, dosed 52 weeks, study length 52 weeks): 533 mg/kg/day
- carcinogen call (strain Wistar, males, site: nose, lesion: one or several types, types not named, dosed 52 weeks, study length 78 weeks): positive
- TD50 (strain Wistar, males, site: skin, lesion: one or several types, types not named, dosed 52 weeks, study length 78 weeks): 5820 mg/kg/day
- carcinogen call (strain Wistar, males, site: testis, lesion: one or several types, types not named, dosed 52 weeks, study length 78 weeks): positive
